Measurements reported in paper PMC11403616, “Arcopilins: A New Family of Staphylococcus aureus Biofilm Disruptors from the Soil Fungus Arcopilus navicularis” (Journal of Medicinal Chemistry, 2024).
Values after ≈ are worked out from the molar mass of the structure shown. “Also recorded” adds a separate entry of the source. Marks after values point to notes of the source that are not given here.

How the values were obtained:
S. pombe DSM 70572 = assay: MIC against fungi (antimicrobial assay); type: cell-based, Schizosaccharomyces pombe
Description: (§1) The antimicrobial activities of compounds 1–7 (Acp A–G) were assessed against different bacterial and fungal strains in addition to their cytotoxic effects on two mammalian cell lines. The tested microorganisms comprised a diverse array of clinically relevant pathogens, encompassing sensitive indicator strains. Among the Gram-positive bacteria were Bacillus subtilis, Staphylococcus aureus, and Mycolicibacterium smegmatis. Gram-negative bacteria included Acinetobacter baumannii, Chromobacterium violaceum, Escherichia coli, and Pseudomonas aeruginosa. Additionally, filamentous fungi such as Mucor hiemalis and yeasts including Candida albicans, Wickerhamomyces anomalus, Rhodotorula glutinis, and Schizosaccharomyces pombe were included. Generally, all compounds presented similar biological properties, summarized in weak or no activity against fungal pathogens as well as weak to moderate inhibition of Gram-positive bacteria (Table 2).
(§2) The antimicrobial and cytotoxic assays were performed according to the methods reported previously.[57]

R. glutinis DSM 10134 = assay: MIC against fungi (antimicrobial assay); type: cell-based, Rhodotorula glutinis; details: – = no activity observed under test conditions
Description: as §1, §2

M. hiemalis DSM 2656 = assay: MIC against fungi (antimicrobial assay); type: cell-based, Mucor hiemalis
Description: as §1, §2

W. anomalus DSM 6766 = assay: MIC against fungi (antimicrobial assay); type: cell-based, Wickerhamomyces anomalus; details: – = no activity observed under test conditions
Description: as §1, §2

C. albicans DSM 1665 = assay: MIC against fungi (antimicrobial assay); type: cell-based, Candida albicans
Description: as §1, §2

[1] = system: preformed biofilms of S. aureus DSM 1104; assay: CFU count analysis, synergistic effects on preformed biofilms; type: cell-based, Staphylococcus aureus; details: Acp A 7.8–3.9 μg/mL, GM 7.8–2 μg/mL, Vac 15.6–3.9 μg/mL
Description: The seed culture of S. aureus DSM 1104 was prepared as previously described, and the OD600 was adjusted to match the turbidity of a 0.001 McFarland standard. Then, 150 μL of bacterial solution in CASO with 4% glucose broth was incubated in 96-well tissue plates (TPP tissue culture ref no. 92196, Switzerland) for 24 h at 150 rpm. […] Methanol (2.5%) was used as the solvent control. The plates were incubated for a further 24 h at 37 °C. Colony-forming unit (CFU) count analysis of arcopilin A, antibiotics (vancomycin and gentamicin), and their combinations was performed as previously described.[58] Cells were suspended in the well 50 times. Dilution series in 1 to 10 steps (20 μL in 200 μL) were prepared down to a final dilution level of 10^–6, and 100 μL of this last dilution was platted on LB agar plates using 3 mm small glass beads (5 to 10, Omnilab, Germany) to homogeneously spread the liquid. Individual colonies on agar plates were counted after incubation at 30 °C for 24 and 48 h.[60] Afterward, CFUs were calculated by considering the dilution factors. Error bars indicate the SD of duplicate with two repeats.

E. coli DSM 1116 = assay: MIC against bacteria (antimicrobial assay); type: cell-based; details: Escherichia coli, DSM1116, – = no activity observed under test conditions
Description: as §1, §2

C. violaceum DSM 30191 = assay: MIC against bacteria (antimicrobial assay); type: cell-based; details: Chromobacterium violaceum, DSM30191, – = no activity observed under test conditions
Description: as §1, §2

S. aureus DSM 346 = assay: MIC against bacteria (antimicrobial assay); type: cell-based, Staphylococcus aureus; details: for MIC: Staphylococcus aureus, DSM346, DSM 346, – = no activity observed under test conditions
Description: as §1, §2

[2] = system: planktonic cells of S. aureus DSM 1104; assay: Checkerboard broth dilution assay (FICI); type: cell-based, Staphylococcus aureus; details: for MIC: Staphylococcus aureus, DSM1104, compound alone, read-out: MIC of each single compound (MICs)
Excerpt: After assessing the effects of Acp A on the pathogen S. aureus, we delved deeper into the interaction of Acp A with established antibiotics (GM and Vac). This exploration focused on both planktonic cells and preformed biofilms of S. aureus. Consequently, we used a checkerboard assay to determine the fractional inhibitory concentration index (FICI) for combinations involving Acp A, GM, or Vac based on both their MIC values in combination.[49]
The interaction between arcopilin A, vancomycin, and gentamicin against S. aureus DSM 1104 was evaluated using a checkerboard broth dilution method to determine the fractional inhibitory concentration indices (FICIs), calculated as FIC = MIC of drug A in combination/MIC of drug A alone + MIC of drug B in combination/MIC of drug B alone.[59] The FICIs were interpreted as synergistic (FICI ≤ 0.5). For this assay, a seed culture was prepared as previously described to inoculate fresh CASO with 4% glucose broth to match the turbidity of a 0.1 McFarland standard suspension. Then, 100 μL of bacterial suspension was distributed in 96-well nontissue microtiter plates (TPP nontissue culture ref no. 92197, Switzerland). Arcopilin A (7.8–2 μg/mL) and antibiotics (vancomycin and gentamicin: 31.3–0.016 μg/mL) were added in increasing concentrations in columns and rows, respectively. The experiments were conducted in duplicate.

B. subtilis DSM 10 = assay: MIC against bacteria (antimicrobial assay); type: cell-based, Bacillus subtilis
Description: as §1, §2

[3] = system: preformed biofilms of S. aureus DSM 1104; assay: Disruption of preformed biofilms, crystal violet assay; type: cell-based, Staphylococcus aureus
Description: Therefore, Acp A–G were evaluated against preformed biofilms of S. aureus using crystal violet staining.[47]
Cultures of S. aureus DSM 1104 were prepared by inoculating 1 mL aliquots from a frozen stock (−20 °C) into 25 mL of CASO medium and incubating them overnight at 37 °C with shaking at 130 rpm.
The crystal violet assay was performed according to a previously reported procedure.[47] Arcopilins A–G were tested in serial dilutions (250–2 μg/mL), with methanol and microporenic acid A (MAA) as negative and positive controls, respectively. Statistical differences between samples and the controls were determined using a two-tailed Student’s t test, with statistical significance defined as p < 0.01. Statistical analysis was carried out using GraphPad Prism 9 (GraphPad Software, San Diego, CA).[58]

KB-3-1 (ACC 158) = assay: Cytotoxicity against mammalian cell lines; type: cell-based; details: Homo sapiens, KB 3-1; ACC 158; – = no activity observed under test conditions; read-out: IC50 against mammalian cell lines, KB-3-1
Description: as §1, §2

L929 (ACC 2) = assay: Cytotoxicity against mammalian cell lines; type: cell-based; details: Mus musculus, L929; ACC 2; – = no activity observed under test conditions; read-out: IC50 against mammalian cell lines, L929
Description: as §1, §2

S. aureus DSM 1104 = assay: MIC against bacteria (antimicrobial assay); type: cell-based, Staphylococcus aureus
Excerpt: The tested microorganisms comprised a diverse array of clinically relevant pathogens, encompassing sensitive indicator strains. Among the Gram-positive bacteria were Bacillus subtilis, Staphylococcus aureus, and Mycolicibacterium smegmatis. Gram-negative bacteria included Acinetobacter baumannii, Chromobacterium violaceum, Escherichia coli, and Pseudomonas aeruginosa. Additionally, filamentous fungi such as Mucor hiemalis and yeasts including Candida albicans, Wickerhamomyces anomalus, Rhodotorula glutinis, and Schizosaccharomyces pombe were included.
as §2

[4] = system: preformed biofilm cells of S. aureus DSM 1104; assay: XTT assay, metabolic activity in preformed biofilm cells; type: cell-based, Staphylococcus aureus; details: 24 h treatment
Description: The seed culture of S. aureus DSM 1104 was prepared as previously described, and its OD600 was adjusted to match the turbidity of a 0.001 McFarland standard. Next, 150 μL of this bacterial solution in CASO with 4% glucose broth was incubated in 96-well tissue plates (TPP tissue culture ref no. 92196, Switzerland) for 24 h at 150 rpm. After incubation, the supernatant was discarded and 150 μL of the fresh media was added to the wells, along with serially diluted arcopilin A (31.3–0.5 μg/mL). The plate was further incubated for 24 h. Afterward, XTT (Cell profile XTT kit, Roche, Switzerland) was prepared in phosphate-buffered saline (PBS) at a final concentration of 0.3 mg/mL. The plate was washed three times with PBS buffer, and then, 150 μL of the prepared XTT solution was added to each well. Plates were further incubated for an additional 4 h at 37 °C while shaking (150 rpm), and absorbance was measured at 490 nm using a plate reader (Synergy 2, BioTek, Santa Clara). Methanol (2.5%) was used as the solvent control. Error bars indicate the standard deviation (SD) of duplicate with two repeats.

[5] = supplement CSV, decimal comma, unit not given, in µg/mL

## C[C@@H]1[C@H](O)[C@@H](C)/C=C/C=C/CC/C=C/C=C/C=C/C=C/C(O[C@H]2O[C@H](C)[C@@H](O)[C@H](N)[C@@H]2O)CC2O[C@](O)(CC(O)C(O)CCC(O)CC(O)CC(O)CC(=O)O[C@H]1C)CC(O)C2C(=O)O (stereo partly drawn) [Nystatin, reference compound]
S. pombe DSM 70572; DSM 70572, – = no activity observed under test conditions
  MIC against fungi, S. pombe: 4.2^e μg/mL
R. glutinis DSM 10134
  MIC against fungi, R. glutinis: 4.2^e μg/mL
M. hiemalis DSM 2656; DSM 2656, – = no activity observed under test conditions
  MIC against fungi, M. hiemalis: 8.3^e μg/mL
W. anomalus DSM 6766
  MIC against fungi, W. anomalus: 8.3^e μg/mL
C. albicans DSM 1665; DSM 1665, – = no activity observed under test conditions
  MIC against fungi, C. albicans: 8.3^e μg/mL

## CNC(C)C1CCC(N)C(OC2C(N)CC(N)C(OC3OCC(C)(O)C(NC)C3O)C2O)O1 (stereo not drawn) [Gentamicin]
[1]
  improvement in the inhibitory effects in combination with Acp A: ~3 fold
E. coli DSM 1116
  MIC: 1.7 µg/mL (≈ 3.56 µM)
C. violaceum DSM 30191
  MIC: 0.42 µg/mL (≈ 0.879 µM)
S. aureus DSM 346
  MIC: 0.4 µg/mL (≈ 0.838 µM)
[2]; Acp A 3.9 μg/mL, MIC alone versus in combination
  increase of the potency of the antibiotic in combination with Acp A: up to 115 fold
[2]; FICI < 0.5: synergistic, value belongs to the combination
  FICI, Acp A and GM: < 0.5
[2]
  MIC: 15.6 µg/mL
[2]; combination of Acp A (3.9 μg/mL) with GM
  MIC in combination (MICc), Acp A and GM: 0.13 µg/mL

## CC(=O)[C@H](C)C[C@@H](C)C[C@H](C)C(=O)C1=C(O)/C(=C/c2ccccc2)NC1=O [Acp A, Arcopilin A]
S. pombe DSM 70572; Schizosaccharomyces pombe, DSM70572, DSM 70572, – = no activity observed under test conditions
  MIC: 66.7 µg/mL (≈ 181 µM)
S. pombe DSM 70572; [5]
  MIC S. pombe: 66,7
B. subtilis DSM 10; Bacillus subtilis, DSM10, DSM 10, – = no activity observed under test conditions
  MIC: 66.7 µg/mL (≈ 181 µM)
B. subtilis DSM 10; [5]
  MIC B. subtilis: 66,7
M. hiemalis DSM 2656; Mucor hiemalis, DSM2656, DSM 2656, – = no activity observed under test conditions
  MIC: 66.7 µg/mL (≈ 181 µM)
M. hiemalis DSM 2656; [5]
  MIC M. hiemalis: 66,7
[3]; at 3.9 μg/mL
  efficacy toward preformed biofilms: 35–45%
[3]; concentration range 15.6 to 250 μg/mL
  efficacy toward preformed biofilms: 50–60%
[3]; tested 250–2 μg/mL
  disrupting effect on preformed biofilms (in words): most promising disrupting effects; also recorded: remarkable effectiveness
KB-3-1 (ACC 158)
  IC50: 8.9 µg/mL (≈ 24.1 µM)
L929 (ACC 2)
  IC50: 14 µg/mL (≈ 37.9 µM)
S. aureus DSM 346
  MIC: 66.7 µg/mL (≈ 181 µM)
S. aureus DSM 346; supplement CSV, S. aureus, decimal comma, unit not given, in µg/mL
  MIC S. aureus: 66,7
S. aureus DSM 1104; Staphylococcus aureus, DSM1104, DSM 1104
  MIC: 31.3 µg/mL (≈ 84.7 µM)
S. aureus DSM 1104; supplement CSV, second S. aureus column (value matches DSM 1104 of Table 2), decimal comma, unit not given, in µg/mL
  MIC S. aureus: 31,3
C. albicans DSM 1665; Candida albicans, DSM1665, DSM 1665, – = no activity observed under test conditions
  MIC: 66.7 µg/mL (≈ 181 µM)
C. albicans DSM 1665; [5]
  MIC C. albicans: 66,7
[2]
  MIC: 31.3 µg/mL
[2]; combined with GM or Vac
  decrease of the MIC value when combined with each antibiotic: ~10 fold
[4]
  lowest concentration with significant reduction in metabolic activity: 3.9 µg/mL
